Several values for one entry are separate records, joined by “and”; a condition that tells them apart may be missing. Equal entries are not always repeated.
How the values were obtained:
Assay type in all cases: physicochemical, human
[1] = GC/MS of serum sample: time from blood collection to centrifugation (Table G); details: for Rate of increase or decrease: detection intensity relative to 1 at 15 minutes; for Rate of increase or decrease / Increase or decrease: blood collection to centrifugation; for Increase or decrease: detection intensity
Procedure: (§1) After standing, the blood sample was subjected to centrifugation under a condition of room temperature, 3500 rpm, and 5 minutes. […] After centrifugation, the blood-collecting vessel was left to stand at room temperature, and the serum was isolated during this time. Here, in order to investigate how the detection intensity of molecules contained in the sample was affected in cases where the time during which the blood-collecting vessel was left at room temperature was set to 1 hour and 6 hours as compared to that in a case where the time was set to 30 minutes, preparations were performed under the respective conditions of 30 minutes, 1 hour, and 6 hours. The obtained serum sample was frozen and stored. Here, in order to investigate how the detection intensity of molecules contained in the sample was affected in cases where freezing and thawing was performed 4 times, 6 times, and 10 times after freezing as compared to that in a case where freezing and thawing was performed 2 times after freezing, freezing and thawing was performed under the respective conditions of 2, 4, 6, and 10 times.
(§2) Frozen blood plasma samples and serum samples were subjected to GC/MS or LC/MS. In GC/MS, the blood plasma samples and serum samples were subjected to methoxymation and trimethylsilylation and then introduced to GC-MS.
(§3) GC/MS was conducted using GCMS·TQ8040 (Shimadzu Corporation) that was a GC·MS equipped with AOC·20i (Shimadzu Corporation) as an autosampler.
(§4) Column: BPX5 (inner diameter of 0.25 mm, length of 30 m, and film thickness of 0.25 μm) (SGE)
(§5) Column temperature: maintained at 60° C. for 2 minutes, then raised at 15° C./min, and maintained at 330° C. for 3 minutes.
(§6) Inlet temperature: 250° C.
(§7) Carrier gas control mode: constant linear velocity of 39.0 cm/sec
(§8) Sample introduction method: split (split ratio of 30:1) Injection volume: 1 μL
(§9) Ionization method: electron ionization
(§10) Ionization current: 60 μA
(§11) Interface temperature: 280° C.
(§12) Ion source temperature: 200° C.
(§13) Mode: multiple reaction monitoring (MRM)
The rate of increase or decrease in Table G is the value of detection intensity relative to 1 that is the detection intensity in a case where the time from blood collection to centrifugation is set to 15 minutes.

[2] = GC/MS of serum sample: time from centrifugation to isolation (Table H); design: key to Rate of increase or decrease / Rate of increase or decrease (first value, increase): detection intensity relative to 1 at 30 min centrifugation-to-isolation; details: for Rate of increase or decrease: detection intensity relative to 1 at 30 minutes; for Increase or decrease: detection intensity
Procedure: as §1, §2, §3, §4, §5, §6, §7, §8, §9, §10, §11, §12, §13
The rate of increase or decrease in Table H is the value of detection intensity relative to 1 that is the detection intensity in a case where the time from centrifugation to isolation is set to 30 minutes.

[3] = GC/MS of serum sample: number of times of freezing and thawing (Table I); design: key to Rate of increase or decrease / Rate of increase or decrease (first value, increase): detection intensity relative to 2 freeze-thaw cycles = 1; details: for Rate of increase or decrease: detection intensity relative to 1 at 2 times; for Number of times when compound is affected: detection intensity changed by 30% or more vs 2 times of freezing and thawing
Procedure: as §1, §2, §3, §4, §5, §6, §7, §8, §9, §10, §11, §12, §13
The rate of increase or decrease in Table I is the value of detection intensity relative to 1 that is the detection intensity in a case where the number of times of freezing and thawing is set to 2 times.

[4] = serum, GC/MS, freezing and thawing 4 times
[5] = detection intensity, serum, GC/MS, freezing and thawing 4 times vs 2 times
[6] = 10 times of freezing and thawing
[7] = serum sample, GC/MS, detection intensity vs 2 times of freezing and thawing
[8] = serum, GC/MS, freezing and thawing 10 times
[9] = detection intensity, serum, GC/MS, freezing and thawing 10 times vs 2 times
[10] = serum, GC/MS, freezing and thawing 6 times
[11] = detection intensity, serum, GC/MS, freezing and thawing 6 times vs 2 times

| SMILES | Rate of increase or decrease ([2]; after 1 hour) | Increase or decrease ([2]; after 1 hour vs 30 minutes) | Rate of increase or decrease [3, 4] | Increase or decrease [3, 5] | Rate of increase or decrease ([1]; after 4 hours) | Increase or decrease ([1]; after 4 hours vs 15 minutes) | Rate of increase or decrease ([1]; after 8 hours) | Increase or decrease ([1]; after 8 hours vs 15 minutes) | Rate of increase or decrease ([2]; after 6 hours) | Increase or decrease ([2]; after 6 hours vs 30 minutes) | also measured |
| --- | --- | --- | --- | --- | --- | --- | --- | --- | --- | --- | --- |
| O=C(O)CCCc1ccccc1 [Phenylbutyric acid] | 1.75 | Increase | 2.61 | Increase |  |  |  |  |  |  | Rate of increase or decrease ([1]; after 12 hours): 2.17; Increase or decrease ([1]; after 12 hours vs 15 minutes): Increase |
| CC(O)(CC(=O)O)C(=O)O (centres unmarked) [Citramalic acid] | 0.33 | Decrease |  |  | 2.01 | Increase |  |  |  |  | Rate of increase or decrease [3, 6]: 0.53; Number of times when compound is affected ([3]; serum sample, GC/MS): 10 times; Increase or decrease [3, 7]: Decrease |
| O=C(CO)[C@H](O)CO [Erythrulose] | 1.31 | Increase | 0.45 and 0.46 | Decrease | 0.58 and 0.55 | Decrease |  |  |  |  |  |
| O=C(O)CCCCC(=O)O [Adipic acid] | 2.50 | Increase |  |  |  | Different from individual |  |  |  |  | Rate of increase or decrease (second value, decrease) ([1]; different from individual to individual, individuals with decrease, relative to 1 at 15 minutes, collection to centrifugation, after 4 hours): 0.61; Rate of increase or decrease (first value, increase) ([1]; different from individual to individual, individuals with increase, relative to 1 at 15 minutes, collection to centrifugation, after 4 hours): 2.06; Rate of increase or decrease [3, 8]: 2.14; Increase or decrease [3, 9]: Increase |
| O=C(O)c1ccccc1 [Benzoic acid] | 0.69 | Decrease |  |  | 1.30 | Decrease |  |  |  |  | Rate of increase or decrease [3, 6]: 3.86; Number of times when compound is affected ([3]; serum sample, GC/MS): 10 times; Increase or decrease [3, 7]: Increase |
| NCCCCCN [Cadaverine] | 0.50 | Decrease |  |  | 1.38 | Increase |  |  |  |  | Rate of increase or decrease [3, 10]: 2.31; Increase or decrease [3, 11]: Increase |
| O=C(O)[C@@H](O)[C@H](O)CO [Threonic acid] |  |  | 0.56 | Decrease |  |  | 0.55 | Decrease | 1.45 | Increase |  |
| O=C(O)C(=O)CO [3-Hydroxypyruvic acid] |  |  |  |  | 0.58 | Decrease |  |  | 1.88 | Increase | Rate of increase or decrease [3, 8]: 4.59; Increase or decrease [3, 9]: Increase |
| O=C(O)CCc1c[nH]c2ccccc12 [3-Indolepropionic acid] |  |  |  |  | 1.93 | Increase |  |  | 1.54 | Increase | Increase or decrease [3, 9]: Different from individual; Rate of increase or decrease (second value, decrease) ([3]; different from individual to individual, individuals with decrease, relative to 1 at 2 times, serum, GC/MS, freezing and thawing 10 times): 0.67; Rate of increase or decrease (first value, increase) ([3]; different from individual to individual, individuals with increase, relative to 1 at 2 times, serum, GC/MS, freezing and thawing 10 times): 2.21 |
| O=C1O[C@H](CO)[C@@H](O)[C@H]1O [Ribonic acid lactone] |  | Different from individual | 1.33 | Increase |  |  | 0.68 | Decrease |  |  | Rate of increase or decrease (second value, decrease) ([2]; different from individual to individual, individuals with decrease, relative to 1 at 30 minutes, after 1 hour): 0.57; Rate of increase or decrease (first value, increase) ([2]; different from individual to individual, individuals with increase, relative to 1 at 30 minutes, after 1 hour): 1.71 |
| NCCCCN [Putrescine] | 1.54 | Increase |  |  |  |  | 1.44 | Increase |  |  | Rate of increase or decrease [3, 6]: 1.77; Number of times when compound is affected ([3]; serum sample, GC/MS): 10 times; Increase or decrease [3, 7]: Increase |
| CCCCCCC(N)C(=O)O (centres unmarked) [2-Aminooctanoic acid] | 1.67 | Increase | 2.80 | Increase | 1.60 | Increase |  |  |  |  |  |
| CC(=O)CC(=O)O [Acetoacetic acid] |  |  | 1.39 | Increase |  |  | 1.46 | Increase | 1.39 | Increase |  |
| O=C(CO)[C@@H](O)[C@H](O)CO [Xylulose] |  |  |  |  |  |  | 1.95 | Increase | 2.48 | Increase |  |
| NCCc1ccc(O)cc1 [Tyramine] |  |  |  |  | 2.37 | Increase |  |  | 3.34 | Increase | Rate of increase or decrease [3, 6]: 3.78; Number of times when compound is affected ([3]; serum sample, GC/MS): 10 times; Increase or decrease [3, 7]: Increase |
| O=c1cc[nH]c(=O)[nH]1 [Uracil] |  |  |  |  | 1.38 | Increase |  |  | 4.84 | Increase | Rate of increase or decrease [3, 10]: 1.54; Increase or decrease [3, 11]: Increase |

From US20220146526A1, “METHOD FOR EVALUATING SAMPLE, ANALYSIS METHOD, METHOD FOR DETECTING DEGRADED SAMPLE, MARKER FOR DETECTING DEGRADED BLOOD PLASMA SAMPLE, AND MARKER FOR DETECTING DEGRADED SERUM SAMPLE” (SHIMADZU CORPORATION, priority 2019, published 2022)
